US9623009B2, “Veliparib in combination with carboplatin and paclitaxel for the treatment of non-small cell lung cancer in smokers” (AbbVie Inc., priority 2014, dated 2017)

Tests used:
[1] = Pharmacokinetic parameters in cotinine high versus cotinine low patients of the Phase 2 study
Description: (§1) A Phase 2, randomized, double-blind, multi-center study was conducted evaluating the efficacy, safety, and tolerability of veliparib in combination with carboplatin and paclitaxel versus placebo in combination with carboplatin and paclitaxel in subjects with documented metastatic or advanced non-small cell lung cancer (NSCLC) as first-line chemotherapy. Patients were randomized in a 2:1 ratio to either veliparib+carboplatin/paclitaxel or placebo+carboplatin/paclitaxel. Patient randomization was stratified by histology (squamous cell versus non-squamous cell), and smoking history (current smoker versus never smoked versus past smoker). Screening procedures and baseline radiographic tumor assessments were performed within 21 days prior to the first day veliparib/placebo was administered. Radiographic tumor assessments were conducted every 6 weeks and were sent to a central imaging center for review. Dosing of oral veliparib/placebo (120 mg) began 2 days prior to the start of the carboplatin/paclitaxel and was given twice a day (BID) for 7 days. […] All subjects were to remain on study until reaching a protocol defined event of disease progression. Patients who completed 6 cycles of treatment remained on study/off study drugs until reaching an event of disease progression. Chemotherapy or biological therapy (maintenance therapy) was not allowed until disease progression. Patients who experienced toxicities due to carboplatin/paclitaxel or veliparib may have been given a delay in the dosing schedule or a dose modification.
Pharmacokinetic parameters were evaluated for patients with chemical evidence of recent smoking (cotinine high^b, >10 ng/mL) compared with those without evidence of recent smoking (cotinine low, ≦10 ng/mL).

[2] = tested on: metastatic or advanced non-small cell lung cancer (NSCLC); assay: Phase 2 randomized double-blind study: PFS and OS with veliparib + carboplatin/paclitaxel versus placebo + carboplatin/paclitaxel; type: in vivo, human
Description: as §1

[3] = patients without chemical evidence of smoking

| Structure (SMILES) | differences in levels between cotinine high and cotinine low patients ([1]; cotinine high >10 ng/mL vs cotinine low ≦10 ng/mL) | Tmax, Mean ± SD (% CV) ([1]; human, in vivo, po) | Tmax ([1]; human, in vivo, po, Tmax, Mean ± SD (% CV)) | HR for OS ([2]; light smokers (<39 pack-years)) | HR for PFS ([2]; light smokers (<39 pack-years)) | HR for OS [2, 3] | HR for PFS [2, 3] |
| --- | --- | --- | --- | --- | --- | --- | --- |
| N.N.O=C([O-])C1(C(=O)[O-])CCC1.[Pt+2] [carboplatin] | no clear differences |  |  |  |  |  |  |
| C[C@]1(c2nc3c(C(N)=O)cccc3[nH]2)CCCN1 [Veliparib, 2-[(2R)-2-methylpyrrolidin-2-yl]-1H-benzimidazole-4-carboxamide] |  | 1.05 ± 0.82 (78.3) hr | 1.34 h | 0.808 | 0.971 | 0.921 | 0.966 |
